The structures appear in SMILES notation.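 Following 48 hours of exposure in 96-well plates, responses at five concentrations were used to interpolate endpoints linearly. The concentration for full growth arrest is given as TGI.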

For one assay, the system named is KM20L2 colon. The assay can be described thus: NCI-60 cell line screen, 48 h.
Turning to `O=C(COc1ccc2c(=O)cc(-c3ccccc3)oc2c1)N1CCN(c2ccccc2)CC1`, the TGI was more than 100 µM.
On the same count and under the same terms, for `Cn1cnc(CCc2ccccc2)n1` the value was more than 100 µM; for `CC1=C(C(=O)O)N2C(=O)[C@@H](NC(=O)C(c3ccc(O)cc3)N3CSC(=S)N(C(C)C)C3)C2SC1` (stereo partly drawn), more than 100 µM; for `COc1cc(OC)c2c(c1)C(=O)C(CC(C)O)=CC2=O` (stereo not drawn), 31.8 µM.
On to `C=CC/C=C/Cc1csc(C(C)(C)C(O)C/C=C/C(=C)CCNC(=O)OC)n1` (stereo not drawn), for which the TGI was more than 100 µM.
Still for that read-out and setting: for `O=C(CSc1nnc(-c2ccc(N=Cc3ccc(Cl)cc3)cc2)o1)Nc1ccc(Cl)cc1Cl` the value was more than 100 µM; for `COc1ccc(C2=Nc3ccccc3NC(=O)C2)cc1`, more than 100 µM.
On the same count and under the same terms, for `NC(=O)N=C(N(Cc1ccccc1)Cc1ccccc1)N(Cc1ccccc1)Cc1ccccc1` the value was more than 100 µM.

Another assay has as its system LXFL 529 NSCLC. The assay can be described thus: NCI-60 cell line screen, 48 h.
`O=C(COc1ccc2c(=O)cc(-c3ccccc3)oc2c1)N1CCN(c2ccccc2)CC1`: the TGI is more than 100 µM.
Consider `Cn1cnc(CCc2ccccc2)n1`, for which the TGI is more than 100 µM.
On the same count and under the same terms, for `CC1=C(C(=O)O)N2C(=O)[C@@H](NC(=O)C(c3ccc(O)cc3)N3CSC(=S)N(C(C)C)C3)C2SC1` (stereo partly drawn) the value was more than 100 µM; for `COc1cc(OC)c2c(c1)C(=O)C(CC(C)O)=CC2=O` (stereo not drawn), 26.1 µM.
Same read-out and setting: the same measure for `Cc1csc(=S)n1OC(=O)NC1CCCCC1`: more than 24 µM.
On the same count and under the same terms, the same measure for `C=CC/C=C/Cc1csc(C(C)(C)C(O)C/C=C/C(=C)CCNC(=O)OC)n1` (stereo not drawn): more than 100 µM.
The compound `O=C(CSc1nnc(-c2ccc(N=Cc3ccc(Cl)cc3)cc2)o1)Nc1ccc(Cl)cc1Cl` yielded a TGI of 96.9 µM.
Still for that read-out and setting: the same measure for `COc1ccc(C2=Nc3ccccc3NC(=O)C2)cc1`: more than 100 µM; for `NC(=O)N=C(N(Cc1ccccc1)Cc1ccccc1)N(Cc1ccccc1)Cc1ccccc1`: more than 100 µM.

The next assay concerns RXF-631 renal. The assay can be described thus: NCI-60 cell line screen, 48 h.
The compound `COc1ccc(C2=Nc3ccccc3NC(=O)C2)cc1` had a TGI of more than 100 µM.

The next assay deals with DLD-1 colon. Briefly: NCI-60 cell line screen, 48 h.
Regarding `Cn1cnc(CCc2ccccc2)n1`, the TGI is more than 100 µM.
On to `CC1=C(C(=O)O)N2C(=O)[C@@H](NC(=O)C(c3ccc(O)cc3)N3CSC(=S)N(C(C)C)C3)C2SC1` (stereo partly drawn), for which the TGI is more than 100 µM.
The same measure, in the same setting: for `COc1cc(OC)c2c(c1)C(=O)C(CC(C)O)=CC2=O` (stereo not drawn) the value was 28.5 µM.
Take `Cc1csc(=S)n1OC(=O)NC1CCCCC1`: the TGI is more than 100 µM.
The same measure, in the same setting: the same measure for `C=CC/C=C/Cc1csc(C(C)(C)C(O)C/C=C/C(=C)CCNC(=O)OC)n1` (stereo not drawn): more than 100 µM; for `O=C(CSc1nnc(-c2ccc(N=Cc3ccc(Cl)cc3)cc2)o1)Nc1ccc(Cl)cc1Cl`: 60.5 µM; for `COc1ccc(C2=Nc3ccccc3NC(=O)C2)cc1`: more than 100 µM.
Consider `NC(=O)N=C(N(Cc1ccccc1)Cc1ccccc1)N(Cc1ccccc1)Cc1ccccc1`, for which the TGI is more than 100 µM.

For a further assay, the system named is HOP-18 NSCLC. The assay can be described thus: NCI-60 cell line screen, 48 h.
For the compound `O=C(COc1ccc2c(=O)cc(-c3ccccc3)oc2c1)N1CCN(c2ccccc2)CC1`, the TGI was more than 100 µM.
The same measure, in the same setting: for `Cn1cnc(CCc2ccccc2)n1` the value was more than 100 µM; for `CC1=C(C(=O)O)N2C(=O)[C@@H](NC(=O)C(c3ccc(O)cc3)N3CSC(=S)N(C(C)C)C3)C2SC1` (stereo partly drawn), more than 100 µM; for `COc1cc(OC)c2c(c1)C(=O)C(CC(C)O)=CC2=O` (stereo not drawn), 30.4 µM.
Still for that read-out and setting: the same measure for `O=C(CSc1nnc(-c2ccc(N=Cc3ccc(Cl)cc3)cc2)o1)Nc1ccc(Cl)cc1Cl`: 39.8 µM; for `COc1ccc(C2=Nc3ccccc3NC(=O)C2)cc1`: more than 100 µM.

The test system of another assay is SNB-78 CNS. Briefly: NCI-60 cell line screen, 48 h.
In turn, `O=C(COc1ccc2c(=O)cc(-c3ccccc3)oc2c1)N1CCN(c2ccccc2)CC1` gave a TGI of more than 100 µM.
Still for that read-out and setting: the same measure for `Cn1cnc(CCc2ccccc2)n1`: more than 100 µM.
`CC1=C(C(=O)O)N2C(=O)[C@@H](NC(=O)C(c3ccc(O)cc3)N3CSC(=S)N(C(C)C)C3)C2SC1` (stereo partly drawn) came in with a TGI of more than 100 µM.
Compound `COc1cc(OC)c2c(c1)C(=O)C(CC(C)O)=CC2=O` (stereo not drawn) showed a TGI of 32 µM.
On the same count and under the same terms, for `Cc1csc(=S)n1OC(=O)NC1CCCCC1` the value was more than 100 µM; for `O=C(CSc1nnc(-c2ccc(N=Cc3ccc(Cl)cc3)cc2)o1)Nc1ccc(Cl)cc1Cl`, more than 100 µM.
Regarding `COc1ccc(C2=Nc3ccccc3NC(=O)C2)cc1`, the TGI amounted to 70 µM.
Same read-out and setting: for `NC(=O)N=C(N(Cc1ccccc1)Cc1ccccc1)N(Cc1ccccc1)Cc1ccccc1` the value was more than 100 µM.

For a further assay, the system named is DMS 273 small cell lung. Briefly: NCI-60 cell line screen, 48 h.
In the case of `Cn1cnc(CCc2ccccc2)n1`, the TGI was more than 100 µM.
Take `CC1=C(C(=O)O)N2C(=O)[C@@H](NC(=O)C(c3ccc(O)cc3)N3CSC(=S)N(C(C)C)C3)C2SC1` (stereo partly drawn): the TGI is more than 100 µM.
Same read-out and setting: the same measure for `COc1cc(OC)c2c(c1)C(=O)C(CC(C)O)=CC2=O` (stereo not drawn): 37.6 µM.
Turning to `Cc1csc(=S)n1OC(=O)NC1CCCCC1`, the TGI was more than 79.9 µM.
The same measure, in the same setting: the same measure for `C=CC/C=C/Cc1csc(C(C)(C)C(O)C/C=C/C(=C)CCNC(=O)OC)n1` (stereo not drawn): more than 100 µM; for `O=C(CSc1nnc(-c2ccc(N=Cc3ccc(Cl)cc3)cc2)o1)Nc1ccc(Cl)cc1Cl`: 88.7 µM; for `COc1ccc(C2=Nc3ccccc3NC(=O)C2)cc1`: more than 100 µM.
Compound `NC(=O)N=C(N(Cc1ccccc1)Cc1ccccc1)N(Cc1ccccc1)Cc1ccccc1` returned a TGI of more than 100 µM.

Another assay has as its system M19-MEL melanoma. Briefly: NCI-60 cell line screen, 48 h.
As to `O=C(COc1ccc2c(=O)cc(-c3ccccc3)oc2c1)N1CCN(c2ccccc2)CC1`, the TGI was more than 100 µM.
The same measure, in the same setting: the same measure for `Cn1cnc(CCc2ccccc2)n1`: more than 100 µM; for `CC1=C(C(=O)O)N2C(=O)[C@@H](NC(=O)C(c3ccc(O)cc3)N3CSC(=S)N(C(C)C)C3)C2SC1` (stereo partly drawn): more than 100 µM; for `COc1cc(OC)c2c(c1)C(=O)C(CC(C)O)=CC2=O` (stereo not drawn): 11.4 µM.
Compound `Cc1csc(=S)n1OC(=O)NC1CCCCC1` gave a TGI of more than 56.6 µM.
The compound `C=CC/C=C/Cc1csc(C(C)(C)C(O)C/C=C/C(=C)CCNC(=O)OC)n1` (stereo not drawn) returned a TGI of more than 100 µM.
As for `O=C(CSc1nnc(-c2ccc(N=Cc3ccc(Cl)cc3)cc2)o1)Nc1ccc(Cl)cc1Cl`, the TGI turned out to be 88.5 µM.
On the same count and under the same terms, the same measure for `COc1ccc(C2=Nc3ccccc3NC(=O)C2)cc1`: more than 100 µM; for `NC(=O)N=C(N(Cc1ccccc1)Cc1ccccc1)N(Cc1ccccc1)Cc1ccccc1`: more than 100 µM.

A further assay has as its system XF 498 CNS. The assay can be described thus: NCI-60 cell line screen, 48 h.
The compound `CC1=C(C(=O)O)N2C(=O)[C@@H](NC(=O)C(c3ccc(O)cc3)N3CSC(=S)N(C(C)C)C3)C2SC1` (stereo partly drawn) returned a TGI of more than 100 µM.
The same measure, in the same setting: for `COc1cc(OC)c2c(c1)C(=O)C(CC(C)O)=CC2=O` (stereo not drawn) the value was 27 µM; for `Cc1csc(=S)n1OC(=O)NC1CCCCC1`, more than 100 µM.
Same read-out and setting: for `C=CC/C=C/Cc1csc(C(C)(C)C(O)C/C=C/C(=C)CCNC(=O)OC)n1` (stereo not drawn) the value was more than 100 µM; for `O=C(CSc1nnc(-c2ccc(N=Cc3ccc(Cl)cc3)cc2)o1)Nc1ccc(Cl)cc1Cl`, 47.9 µM.
For the compound `COc1ccc(C2=Nc3ccccc3NC(=O)C2)cc1`, the TGI is 36.8 µM.
